Assay results reported in the Kinase Knowledgebase extract (Sharma et al. 2016).

Columns and labels:
MAPK14 (human) = MAPK14 (human) (UniProt Q16539); assay: p38 Kinase Inhibition
MAPK14 = MAPK14 (UniProt Q16539); assay: p38 --- TNF-alpha Inhibition; conditions: for IC50: thp1
Sequence of MAPK14 (Q16539 whole entry, looked up): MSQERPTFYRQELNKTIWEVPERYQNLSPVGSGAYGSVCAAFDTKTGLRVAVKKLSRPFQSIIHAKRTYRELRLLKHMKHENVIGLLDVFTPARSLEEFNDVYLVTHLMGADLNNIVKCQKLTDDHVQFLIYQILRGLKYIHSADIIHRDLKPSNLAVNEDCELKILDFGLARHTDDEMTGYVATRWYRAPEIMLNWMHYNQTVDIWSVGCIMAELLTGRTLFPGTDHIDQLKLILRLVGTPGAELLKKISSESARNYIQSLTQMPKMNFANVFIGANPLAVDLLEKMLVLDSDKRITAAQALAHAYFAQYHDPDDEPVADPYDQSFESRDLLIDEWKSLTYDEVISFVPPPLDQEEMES

Sequence of MAPK14 (human) (Q16539 whole entry, looked up): as above

Question: Which IC50 (MAPK14 (human)) does the source give for `FC(F)(F)c1cccc(-c2nc3cccccc-3c2-c2ccncc2)c1` here?
Answer: 1.47 µM

Question: What about the IC50 (MAPK14) of the same compound?
Answer: 0.16 µM

Question: `Cc1ccc(-c2nc3cccccc-3c2-c2ccncc2)cc1` was tested. Which IC50 (MAPK14 (human)) did it give?
Answer: 4.76 µM

Question: And the IC50 (MAPK14)?
Answer: 0.263 µM

Question: How did the IC50 (MAPK14 (human)) turn out when `COc1ccc(-c2nc3cccccc-3c2-c2ccncc2)cc1` was run?
Answer: 24.1 µM

Question: What about the inhibition (MAPK14; thp1, concentration not given here) of the same compound?
Answer: 37%

Question: How did the IC50 (MAPK14 (human)) turn out when `Fc1ccc(-c2nc3cccccc-3c2-c2ccncc2)cc1` was run?
Answer: 1.34 µM

Question: And the IC50 (MAPK14)?
Answer: 0.23 µM

Question: Which IC50 (MAPK14 (human)) does the source give for `Clc1cccc(-c2nc3cccccc-3c2-c2ccncc2)c1` here?
Answer: 4.96 µM

Question: What about the IC50 (MAPK14) of the same compound?
Answer: 1.42 µM

Question: Which IC50 (MAPK14 (human)) does the source give for `CNc1nccc(-c2c3cccccc-3nc2-c2ccc(F)cc2)n1` here?
Answer: 17.1 µM

Question: What about the IC50 (MAPK14) of the same compound?
Answer: 1.71 µM

Question: How did the IC50 (MAPK14 (human)) turn out when `Fc1ccc(-c2nc3cccccc-3c2-c2ccnc(F)c2)cc1` was run?
Answer: 3.28 µM

Question: And the IC50 (MAPK14)?
Answer: 1.56 µM

Question: What does the source list for `CSc1nccc(-c2c3cccccc-3nc2-c2ccc(F)cc2)n1`?
Answer: IC50 (MAPK14 (human)): 2.59 µM; IC50 (MAPK14): 4.51 µM

Question: Which results are given for `Clc1ccc(-c2nc3cccccc-3c2-c2ccncc2)cc1`?
Answer: IC50 (MAPK14 (human)): 2.79 µM; IC50 (MAPK14): 1.4 µM

Question: Which IC50 (MAPK14 (human)) does the source give for `CNc1nccc(-c2c3cccccc-3nc2-c2cccc(C(F)(F)F)c2)n1` here?
Answer: 2.85 µM

Question: And the IC50 (MAPK14)?
Answer: 0.675 µM

Question: `Fc1cc(-c2c3cccccc-3nc2-c2cccc(C(F)(F)F)c2)ccn1` was tested. Which IC50 (MAPK14 (human)) did it give?
Answer: 12.1 µM

Question: What about the IC50 (MAPK14) of the same compound?
Answer: 1.61 µM

Question: What does the source list for `Fc1cc(-c2c3cccccc-3nc2-c2cccc(Cl)c2)ccn1`?
Answer: IC50 (MAPK14 (human)): 0.935 µM; IC50 (MAPK14): 0.95 µM
